Data from patent publication EP0162422A2, “The novel physiologically active substance foroxymithine, a process and microorganisms for its production and its use as medicament” (MICROBIAL CHEMISTRY RESEARCH FOUNDATION, priority 1984, dated 1985).

Columns and labels:
[1] = target: T1, angiotensin I converting enzyme (Bos taurus, UniProt P12820); assay: Anti-angiotensin I converting enzyme activity (modified Hayakari method, hippuryl-L-histidyl-L-leucine substrate, absorbance at 382 nm); format: biochemical, bovine; details: material from the purification steps of Examples 2 and 3; read-out: angiotensin I converting enzyme inhibitory activity (IC50) (converted)
T1 construct: obtained from a bovine lung and partially purified; from tissue; host or cells: bovine lung
T1 sequence (P12820 29-1306): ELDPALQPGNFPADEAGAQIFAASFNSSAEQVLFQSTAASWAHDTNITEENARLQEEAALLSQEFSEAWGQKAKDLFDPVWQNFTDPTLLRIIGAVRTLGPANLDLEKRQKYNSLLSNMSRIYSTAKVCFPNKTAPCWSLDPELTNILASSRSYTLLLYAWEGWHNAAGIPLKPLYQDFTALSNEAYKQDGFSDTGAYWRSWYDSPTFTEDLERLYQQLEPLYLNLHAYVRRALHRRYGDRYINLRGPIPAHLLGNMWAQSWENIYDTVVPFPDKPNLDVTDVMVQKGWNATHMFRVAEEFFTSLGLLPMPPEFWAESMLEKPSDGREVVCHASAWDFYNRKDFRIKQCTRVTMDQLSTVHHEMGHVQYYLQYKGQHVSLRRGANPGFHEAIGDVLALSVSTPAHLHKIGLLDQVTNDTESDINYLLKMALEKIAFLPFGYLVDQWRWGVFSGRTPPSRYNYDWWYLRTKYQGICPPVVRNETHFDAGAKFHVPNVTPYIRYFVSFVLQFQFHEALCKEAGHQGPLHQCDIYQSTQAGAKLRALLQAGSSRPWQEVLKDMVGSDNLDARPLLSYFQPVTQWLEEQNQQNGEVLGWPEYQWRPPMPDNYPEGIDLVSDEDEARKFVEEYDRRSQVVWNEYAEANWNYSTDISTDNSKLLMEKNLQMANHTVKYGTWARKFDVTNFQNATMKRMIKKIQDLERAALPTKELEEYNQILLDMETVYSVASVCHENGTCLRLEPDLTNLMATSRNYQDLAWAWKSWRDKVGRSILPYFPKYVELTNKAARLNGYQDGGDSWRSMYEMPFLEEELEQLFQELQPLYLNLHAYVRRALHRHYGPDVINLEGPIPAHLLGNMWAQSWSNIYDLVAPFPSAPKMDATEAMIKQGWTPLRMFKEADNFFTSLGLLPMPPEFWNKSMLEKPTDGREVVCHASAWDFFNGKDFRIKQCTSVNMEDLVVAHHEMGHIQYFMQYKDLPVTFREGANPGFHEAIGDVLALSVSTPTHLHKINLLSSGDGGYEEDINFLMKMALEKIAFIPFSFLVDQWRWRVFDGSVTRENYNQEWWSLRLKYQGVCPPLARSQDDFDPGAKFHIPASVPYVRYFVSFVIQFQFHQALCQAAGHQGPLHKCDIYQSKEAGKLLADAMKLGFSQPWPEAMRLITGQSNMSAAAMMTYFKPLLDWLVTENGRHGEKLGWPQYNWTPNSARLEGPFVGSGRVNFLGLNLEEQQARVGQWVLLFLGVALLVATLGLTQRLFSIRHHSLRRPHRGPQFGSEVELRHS
Protocol: Follow-up of foroxymithine during the cultivation step and the purification step was performed in accordance with the determination of anti-angiotensin I converting enzyme activity by the method to be described below.
Anti-angiotensin I converting enzyme activity was determined by a modification of the angiotensin I converting enzyme determination technique described in M. Hayakari et al., Analytical Biochemistry Vol. 84, pages 361-369 (1978). Hippuryl-L-histidyl-L-leucine as a substrate was dissolved at a concentration of 5 mg/ml in Tris-hydrochloride buffer (0.5M, pH 8.0) containing 0.3M sodium chloride. 0.40 ml of a solution containing a test material was added to 0.05 ml of the resulting solution. The mixture was heated at 37'C for 3 minutes. Then, 0.05 ml of a solution containing angiotensin I converting enzyme that had been obtained from a bovine lung and partially purified was added, and the mixture was reacted for 30 minutes at 37.C. […] After the system was allowed to stand for 15 minutes at room temperature, its absorbance (termed absorbance (a)) at 382 nm was measure. […] The reaction system as the control was measured for absorbance, which was termed absorbance (b). The angiotensin I converting enzyme inhibition rate (%) was calculated from the equation (b-a)/b x 100. […]

[2] = test system: spontaneous hypertensive rats (SH rats); assay: Effect on blood pressure in spontaneous hypertensive rats after oral administration; format: in vivo
Protocol: This Example illustrates the effect of foroxymithine on blood pressure in spontaneous hypertensive rats (SH rate).
SH rats weighing 320 to 358 g were orally administered foroxymithine dihydrate as an aqueous solution at do- see of 12.5, 25 and 50 mg/kg. After the administration, blood pressure was measured at certain time intervals. Changes in blood pressure in the foroxymithine- administered group were compared with those in the control group orally administered distilled water only.

mice = assay: Acute toxicity studies in mice; format: in vivo; details: 800 mg/kg i.v.
Excerpt: Foroxymithine is therefore a low-toxicity substance.

[3] = oral dose 12.5 mg/kg, 1 hour after administration
[4] = oral dose 12.5 mg/kg, 3 hours after administration
[5] = oral dose 12.5 mg/kg, 6 hours after administration
[6] = oral dose 12.5 mg/kg, 24 hours after administration
[7] = oral dose 50.0 mg/kg, 1 hour after administration
[8] = oral dose 50.0 mg/kg, 3 hours after administration
[9] = oral dose 50.0 mg/kg, 6 hours after administration
[10] = oral dose 50.0 mg/kg, 24 hours after administration

CC(=O)NC(CCCN(O)C=O)C(=O)NC(CO)C(=O)N(O)CCCC1NC(=O)C(CCCN(O)C=O)NC1=O (stereo not drawn) [Foroxymithine dihydrate, foroxymithine]
IC50 [1]: 12.2 µM | Mean blood pressure ± S.D. [2, 3]: 180 ± 0.7 mmHg | decrease in blood pressure [2, 3]: 14.3% | Mean blood pressure ± S.D. [2, 4]: 190 ± 28.2 mmHg | decrease in blood pressure [2, 4]: 9.5% | Mean blood pressure ± S.D. [2, 5]: 200 ± 14.1 mmHg | decrease in blood pressure [2, 5]: 4.8% | Mean blood pressure ± S.D. [2, 6]: 210 ± 14.1 mmHg | decrease in blood pressure [2, 6]: 0% | Mean blood pressure ± S.D. ([2]; oral dose 12.5 mg/kg, before administration): 210 ± 0.7 mmHg | Mean blood pressure ± S.D. [2, 7]: 160 ± 7.0 mmHg | decrease in blood pressure [2, 7]: 23.8% | Mean blood pressure ± S.D. [2, 8]: 153 ± 3.5 mmHg | decrease in blood pressure [2, 8]: 27.1% | Mean blood pressure ± S.D. [2, 9]: 193 ± 10.6 mmHg | decrease in blood pressure [2, 9]: 8.1% | Mean blood pressure ± S.D. [2, 10]: 213 ± 3.5 mmHg | decrease in blood pressure [2, 10]: -1.4% | Mean blood pressure ± S.D. ([2]; oral dose 50.0 mg/kg, before administration): 210 ± 0.0 mmHg | effect on blood pressure ([2]; spontaneous hypertensive rats (SH rats), oral, conclusion in words): lower blood pressure | deaths (acute toxicity) (mice): no deaths
